Where two headings read alike, the source gives them in different places.

For one compound, IC50 results are on record in patent publication US7915291B2, “Hepatitis C virus inhibitors” (Bristol-Myers Squibb Company, priority 2002, dated 2011).

In test [1] the target is T1, human pancreatic chymotrypsin (Homo sapiens, UniProt P17538).
T1 construct: purchased Sigma
Briefly: Specificity assay, chymotrypsin. It is filed as biochemical. As to conditions: 2 hr pre-incubation. Here is the method:
(§1) The specificities of compounds of the present invention were determined against a variety of serine proteases: human leukocyte elastase (HLE), porcine pancreatic elastase (PPE) and human pancreatic chymotrypsin and one cysteine protease: human liver cathepsin B. In all cases a 96-well plate format protocol using colorimetric p -nitroaniline (pNA) substrate specific for each enzyme was used as described previously (Patent WO 00/09543) with some modifications to the serine protease assays. All enzymes were purchased from Sigma while the substrates were from Bachem.
(§2) Each assay included a 2 hr enzyme-inhibitor pre-incubation at RT followed by addition of substrate and hydrolysis to ˜30% conversion as measured on a Spectramax Pro microplate reader. Compound concentrations varied from 100 to 0.4 μM depending on their potency. […]
(§3) The percentage of inhibition was calculated using the formula: [1−((UVinh−UVblank)/(UVctl−UVblank))]×100 […]

Test [2] has as its target HCV NS3/4A protease complex, BMS strain (UniProt P27958, C1454S/C1711G, species not given/STRAIN_BMS). Put plainly: Recombinant HCV NS3/4A protease complex FRET peptide assay (BMS strain). It is filed as biochemical, HCV genotype 1a. Summed up:
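Recombinant BMS-strain NS3/4A (His-tagged NS4A with three-lysine tail, E. coli) at 2-3 nM preincubated 1 min with compound, then 2 μM ester-linked NS4A/NS4B-based FRET peptide added. Fluorescence followed in real time ~15 min at 25° C. Percent inhibition from slope of linear fluorescence change versus no-compound control.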

For test [3], the target named is T2, porcine pancreatic elastase (PPE) (Sus scrofa, UniProt P00772).
T2 construct: purchased Sigma
T2 sequence (P00772 27-266): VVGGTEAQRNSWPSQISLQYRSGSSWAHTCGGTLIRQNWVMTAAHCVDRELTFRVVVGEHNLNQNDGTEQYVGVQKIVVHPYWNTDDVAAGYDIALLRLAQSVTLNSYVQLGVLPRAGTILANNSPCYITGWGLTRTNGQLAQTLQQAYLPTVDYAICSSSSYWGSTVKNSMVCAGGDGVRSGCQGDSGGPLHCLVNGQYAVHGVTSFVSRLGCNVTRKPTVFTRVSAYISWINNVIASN
Briefly: Specificity assay, PPE. It counts as biochemical. As to conditions: 2 hr pre-incubation. Here is the method:
as §1, §2, §3

T1 sequence (P17538 19-263): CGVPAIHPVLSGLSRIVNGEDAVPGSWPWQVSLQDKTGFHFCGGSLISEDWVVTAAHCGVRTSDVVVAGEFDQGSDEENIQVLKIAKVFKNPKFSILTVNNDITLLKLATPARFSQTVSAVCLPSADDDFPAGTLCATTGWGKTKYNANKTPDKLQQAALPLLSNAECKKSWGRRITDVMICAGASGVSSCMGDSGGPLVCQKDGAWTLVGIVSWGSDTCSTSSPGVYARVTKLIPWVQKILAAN

For `C=C[C@@H]1C[C@]1(NC(=O)[C@@H]1C[C@@H](Oc2nc(C3CC3)cc3ccccc23)CN1C(=O)[C@@H](NC(=O)OC(C)(C)C)C(C)(C)C)C(=O)NS(=O)(=O)C1CC1` [Compound 34], the IC50 in test [1] is over 200000 nM; in test [2] (BMS strain, read-out: IC50 against the NS3/4A BMS strain in the enzyme assay), 23 nM; in test [2] (NS3/4A BMS strain, read-out: IC50 range), under 100 nM; in test [3], over 200000 nM.
